Experimental data from patent publication US9539237B2, “Compositions and methods for drug-sensitization or inhibition of a cancer cell” (The Texas A&M University System, priority 2012, dated 2017).

What was measured:
[1] = test system: CHOP-resistant G3 NHL cells; assay: Cell growth assay (resazurin fluorescence) on G3 cells; type: cell-based, human; details: for Magnitude of potentiation in combination with doxorubicin: G3; for Fold increase in potency over DOX alone: lymphoma cell line G3
Description: Compositions were tested on CHOP-resistant G3 NHL cells that had been cultivated in RPMI medium for five days. Prior to assay, the cells were counted by haemocytometer and cell concentration standardized to 625,000 cells/ml. Test drugs were solubilized in 100% DMSO and then diluted to final assay concentration with 0.1M phosphate buffered saline (PBS) and a final DMSO concentration of 0.5%. […] The metabolic dye rezasurin was added to the wells of the assay plate at a final concentration of 20 μg/ml and the plates were incubated for an additional 24 hours. The plates were then read in a BMG Polarstar plate reader at wavelength (573-605) and the data plotted as OD versus increasing dilutions (i.e., decreasing total amounts) of rifabutin derivative concentration.
(§1) In these experiments, the following cell lines were used: CHOP-resistant NHL cell line G3, CHOP-sensitive NHL cell line CRL2631, the multi-drug resistant sarcoma cell line MES-SA-Dx5; multi-drug-resistant breast cancer cell line MDA-MB-231, multi-drug resistant ovarian carcinoma cell line SK-OV3, multi-drug resistant ovarian cancer cell line NCI/ADR-RES, drug-sensitive ovarian cancer cell line OVCAR-5, and multi-drug resistant ovarian cancer cell line OVCAR-3. […]

[2] = test system: multi-drug resistant ovarian carcinoma cell line SK-OV3; assay: Cell growth assay on SK-OV3 cells; type: cell-based, human
Source text: as §1

[3] = test system: multi-drug resistant ovarian cancer cell line OVCAR-3; assay: Cell growth assay on OVCAR-3 cells; type: cell-based
Source text: (§2) In these experiments, the following cell lines were used: CHOP-resistant NHL cell line G3, CHOP-sensitive NHL cell line CRL2631, the multi-drug resistant sarcoma cell line MES-SA-Dx5; multi-drug-resistant breast cancer cell line MDA-MB-231, multi-drug resistant ovarian carcinoma cell line SK-OV3, multi-drug resistant ovarian cancer cell line NCI/ADR-RES, drug-sensitive ovarian cancer cell line OVCAR-5, and multi-drug resistant ovarian cancer cell line OVCAR-3.
(§3) Additional cell lines used include: ovarian cancer OVCAR-8. T lymphoblastoid leukemia MOLT-4, dexamethasone-resistant multiple myeloma MM.1R, myeloid leukemia cells HL-60, osteosarcoma cells U-2 OS, and myeloma RPMI 8226.

[4] = test system: multi-drug-resistant breast cancer cell line MDA-MB-231; assay: Cell growth assay on MDA-MB-231 cells; type: cell-based
Source text: as §2, §3

[5] = test system: G3 CHOP-resistant NHL cells; assay: G3 tumor efficacy studies in SCID mice; type: in vivo; details: fourth study
Description: In a first efficacy study, 6-8 week old female SCID mice (7 mice per treatment arm) were injected subcutaneously on both flanks with 1×10^7 G3 CHOP-resistant NHL cells. Once palpable tumors (about […] size) appeared, therapies (CHOP or CHOP+rifabutin) were started. CHOP was administered at the maximum tolerated dose (cyclophosphamide, 40 mg/kg i.v.; doxorubicin, 3.3 mg/kg i.v.; vincristine, 0.5 mg/kg i.v.; and prednisone, 0.2 mg/kg orally daily for 5 d) weekly for 3 weeks. Rifabutin in an amount of 100 mg/kg was administered on the day of each CHOP treatment and 24-hours later by gavage. Mouse body weight and tumor size were monitored every two days and tumor size measured by caliper. The tumor volume formula (L*W*W)/2 was used to calculate tumor mass.
A second efficacy study was conducted where mice were treated before the appearance of palpable tumors. In that experiment, one week after transplantation of CHOP-resistant G3 cells, one group (7 mice) was treated with CHOP-only and a second group (8 mice) was treated with CHOP+rifabutin.
A third study was conducted in which mice injected with CHOP-resistant G3 cells received reduced dosages of CHOP in combination with 33 mg/kg rifabutin. CHOP+rifabutin was administered weekly beginning one week post-inoculation. Control mice were given no CHOP or rifabutin.
SCID mice were injected with CHOP-resistant G3 cells in the same manner as the first efficacy study above. Treatments began 2 weeks post-inoculation and were administered twice weekly.

[6] = test system: multi-drug resistant sarcoma cell line MES-SA-Dx5; assay: Cell growth assay on MES-SA-Dx5 cells; type: cell-based
Source text: as §2, §3

[7] = test system: multi-drug resistant ovarian cancer cell line NCI/ADR-RES; assay: Cell growth assay on NCI/ADR-RES cells; type: cell-based
Source text: as §2, §3

total intracellular ROS = assay: Intracellular ROS by CellROX staining and flow cytometry; type: cell-based
Source text: Cells were then stained with the fluorescent ROS indicator, CellROX, and subjected to flow cytometry to quantitate total intracellular ROS.
The electron transport chain (ETC) is known to be a primary generator of ROS in the cell. Most of the ROS is generated by Complexes I and III of the ETC. Inhibition of Complex I results in electrons piling up and leaking to react with oxygen to produce ROS.
MDR/P-gp activity is closely associated with calcium status in the cell, so calcium modulators were tested for effects on ROS. […] Relatively Dox-sensitive lymphoma (CRL2631, 10S, WSU) and ovarian carcinoma (OVCAR8) and more Dox-resistant lymphoma (G3R, 10R, WSUR) and ovarian carcinoma (ADR) were treated with 10 uM […] for 2 hrs. […] Cells were co-stained with the cell-permeable red fluorescent ROS indicator, CellROX, and cell-permeable green fluorescent calcium indicator. Fluo-4AM, and then subjected to flow cytometry to quantitate changes in ROS and calcium levels.
All samples were analyzed at the same time in flow cytometry.

[8] = Dox-resistant G3 lymphoma cells, FIG. 40

| Molecule | Magnitude of potentiation in combination with doxorubicin [1] | Magnitude of potentiation in combination with doxorubicin [2] | Fold increase in potency over DOX alone [1] | Magnitude of potentiation in combination with doxorubicin [3] | also measured |
| --- | --- | --- | --- | --- | --- |
| 4-deoxy-3,4[2-spiro-[1-(isobutylaminocarbonyl)-piperidin-4-yl]]-(1H)-imidazo-(2,5-dihydro)rifamycin S [RTI-102] | ++ (++ potentiation between 2.1 to 5 fold increase) | +++ (+++ potentiation greater than 5 fold increase) | – | – | – |
| 4-deoxy-3,4[2-spiro-[1-(n-propyloxycarbonyl)-piperidin-4-yl]]-(1H)-imidazo-(2,5-dihydro)rifamycin S [RTI-78] | – | – | 29.5 fold | – | – |
| 11-deoxy-11-amino-4-deoxy-3,4[2-spiro-[1-(isobutylaminocarbonyl)-piperidin-4-yl]]-(1H)-imidazo-(2,5-dihydro)rifamycin S [RTI-183] | – | – | 0.5 fold | + (+ potentiation between 1.2 to 2.0 fold increase) | – |
| 11-deoxy-11-imino-4-deoxy-3,4[2-spiro-[1-(2-methoxyethyl)-piperidin-4-yl]]-(1H)-imidazo-(2,5-dihydro)rifamycin S [RTI-51] | – | + (+ potentiation between 1.2 to 2.0 fold increase) | 0.7 fold | + (+ potentiation between 1.2 to 2.0 fold increase) | – |
| 11-deoxy-11-imino-4-deoxy-3,4[2-spiro-[1-(2-morpholinoethyl)-piperidin-4-yl]]-(1H)-imidazo-(2,5-dihydro)rifamycin S [RTI-53] | – | + (+ potentiation between 1.2 to 2.0 fold increase) | 0.2 fold | + (+ potentiation between 1.2 to 2.0 fold increase) | – |
| 11-deoxy-11-imino-4-deoxy-3,4[2-spiro-[1-(isobutylaminocarbonyl)-piperidin-4-yl]]-(1H)-imidazo-(2,5-dihydro)rifamycin S [RTI-182] | + (+ potentiation between 1.2 to 2.0 fold increase) | ++ (++ potentiation between 2.1 to 5 fold increase) | 2.0 fold | + (+ potentiation between 1.2 to 2.0 fold increase) | Magnitude of potentiation in combination with doxorubicin [4]: ++ (++ potentiation between 2.1 to 5 fold increase) |
| 11-deoxy-11-imino-4-deoxy-3,4[2-spiro-[1-(isobutyloxycarbonyl)-piperidin-4-yl]]-(1H)-imidazo-(2,5-dihydro)rifamycin S [RTI-81] | +++ (+++ potentiation greater than 5 fold increase) | +++ (+++ potentiation greater than 5 fold increase) | – | – | Longer life than doxorubicin only ([5]; DOX 3.3 mg/kg iv + RTI-81 10 mg/kg by gavage twice weekly): 27%; Mean lifespan ([5]; doxorubicin+RTI-81 group): 42.6; Median lifespan ([5]; doxorubicin+RTI-81 group): 42; Magnitude of potentiation in combination with doxorubicin [6]: ++ (++ potentiation between 2.1 to 5 fold increase); Magnitude of potentiation in combination with doxorubicin [7]: + (+ potentiation between 1.2 to 2.0 fold increase) |
| O=c1[nH]c2ccccc2n1C1CCN(Cc2ccc(-c3nc4cc5[nH]cnc5cc4nc3-c3ccccc3)cc2)CC1 [Akt Inhibitor VIII, reference compound] | – | – | – | – | Reversal of CHOP resistance ([1]; G3 cells, FIG. 30B): dose-dependent reversal of CHOP resistance |
| CC(=O)OCOC(=O)CN(CC(=O)OCOC(C)=O)c1ccccc1OCCOc1ccccc1N(CC(=O)OCOC(C)=O)CC(=O)OCOC(C)=O [BAPTA-AM] | – | – | – | – | Induction of ROS (total intracellular ROS; [8]): induced ROS |
| CCNC(=O)N1CCC2(CC1)N=c1c3c(O)c4c(O)c(C)c5c(c4c1=N2)C(=N)[C@@](C)(O/C=C/[C@H](OC)[C@@H](C)[C@@H](OC(C)=O)[C@H](C)[C@H](O)[C@H](C)[C@@H](O)[C@@H](C)/C=C/C=C(/C)C(=O)N3)O5 [RTI-82, 11-deoxy-11-imino-4-deoxy-3,4[2-spiro-[1-(ethylaminocarbonyl)-piperidin-4-yl]]-(1H)-imidazo-(2,5-dihydro)rifamycin S] | – | – | 0.7 fold | – | Magnitude of potentiation in combination with doxorubicin [4]: +++ (+++ potentiation greater than 5 fold increase) |
| CO[C@H]1/C=C/O[C@@]2(C)Oc3c(C)c(O)c4c(O)c(c5c(c4c3C2O)=NC2(CCN(CC(C)C)CC2)N=5)NC(=O)/C(C)=C\C=C\[C@H](C)[C@H](O)[C@@H](C)[C@@H](O)[C@@H](C)[C@H](OC(C)=O)[C@@H]1C (stereo partly drawn) [RTI-174, 11-deoxy-11-hydroxy-4-deoxy-3,4[2-spiro-[1-(2-methylpropyl)-piperidin-4-yl]]-(1H)-imidazo-(2,5-dihydro)rifamycin S] | ++ (++ potentiation between 2.1 to 5 fold increase) | + (+ potentiation between 1.2 to 2.0 fold increase) | – | + (+ potentiation between 1.2 to 2.0 fold increase) | Magnitude of potentiation in combination with doxorubicin [7]: + (+ potentiation between 1.2 to 2.0 fold increase) |
| COC1C=COC2(C)Oc3c(C)c(O)c4c(c3C2N)C2=NC3(CCN(CC(C)C)CC3)NC2=C(NC(=O)C(C)=CC=CC(C)C(O)C(C)C(O)C(C)C(OC(C)=O)C1C)C4=O (stereo not drawn) [RTI-181, 11-deoxy-11-amino-4-deoxy-3,4[2-spiro-[1-(2-methylpropyl)-piperidin-4-yl]]-(1H)-imidazo-(2,5-dihydro)rifamycin S] | +++ (+++ potentiation greater than 5 fold increase) | +++ (+++ potentiation greater than 5 fold increase) | 5.5 fold | + (+ potentiation between 1.2 to 2.0 fold increase) | – |
| C=C(C)[C@H]1Cc2c(ccc3c2O[C@@H]2COc4cc(OC)c(OC)cc4[C@@H]2C3=O)O1 [Rotenone] | – | – | – | – | Induction of ROS (total intracellular ROS; [8]): induced ROS |
| COC(=O)[C@H]1[C@H]2C[C@@H]3c4[nH]c5cc(OC)ccc5c4CCN3C[C@H]2C[C@@H](OC(=O)c2cc(OC)c(OC)c(OC)c2)[C@@H]1OC [reserpine] | – | – | – | – | Induction of ROS relative to control drugs (total intracellular ROS; ADR and OVCAR8 cells, FIG. 41A): induced ROS; Induction of ROS (total intracellular ROS; OVCAR8, ADR-RES and G3 cells, 2 hrs, 10 uM, FIG. 38): induced ROS |
| antimycin A | – | – | – | – | Induction of ROS (total intracellular ROS; [8]): not |
